In patent US20130252816A1, “HERBICIDAL COMPOSITION AND USE THEREOF” (Syngenta Crop Protection LLC, priority 2010, published 2013):

Experiments:
[1] = test system: treated plants; details: after treatment, glyphosate per se; cited from earlier work
[2] = test system: Poa annua; test: Example 2: alcohol ethoxylate adjuvants without glyphosate, visual % damage, tracksprayer 300 l/ha; format: in vivo
Excerpt: (§1) The effect of different types of alcohol ethoxylate (branched—Genapol X-series, and unbranched—Genapol O-series, differing degrees of ethoxylation, see Table 3 below for more details), on unwanted vegetation (broadleaf weed and grass species), in the absence of glyphosate, was investigated and compared to untreated (water only) control weeds.
(§2) Troughs (measuring 16 cm by 13 cm by 5 cm) were filled with local field soil. Seeds of Veronica persica, Stellaria media, Trifolium repens and Poa annua were sown 24 days before application of test samples. Plants were grown in the glasshouse at 18 to 20° C. and 60% relative humidity. Application of alcohol ethoxylate test samples was carried out using a tracksprayer, spraying at a rate of 300 l/ha. Plants were kept in glasshouse and visual assessment of the estimated percentage damage to the plant was carried out 1, 7, and 14 days from application.
(§3) Damage was assessed as wilting, desiccation or any other kind of visual injury in comparison to the untreated control (water only).

[3] = test system: Stellaria media; test: as above; format: in vivo
Excerpt: as §1, §2, §3

[4] = test system: Trifolium repens; test: as above; format: in vivo
Excerpt: as §1, §2, §3

[5] = test system: Veronica persica; test: as above; format: in vivo
Excerpt: as §1, §2, §3

[6] = test system: broadleaf weed and grass species; test: Example 2: overall statement on alcohol ethoxylates without glyphosate; format: in vivo; details: absence of glyphosate
Excerpt: as §1, §2, §3

[7] = test system: Poa annua; test: Example 1: adjuvants alone, visual % damage, pots in glasshouse; format: in vivo
Protocol: (§4) The effect of different adjuvants (see Table 1 below) on the growth of broadleaf weed and grass species was investigated and compared to untreated (water only) control weeds.
(§5) Plates, each with 48 pots measuring 2.7 cm diameter and 5 cm deep, were filled with TKS1 growing media (Floragard, Germany). Seeds of Taraxacum officinale, Stellaria media or Poa annua were sown on the surface (10 to 20 per pot). Plants were grown in glasshouse at a temperature of 18 to 20° C. and at 60% relative humidity.
(§6) Plants were treated 15 (Stellaria, Poa) and 34 (Taraxacum) days after sowing with 60 μl of a 1.25, 2.5, 5 and 10% (w/v) solution of adjuvant using a hand airbrush.
(§7) Visual assessment of the percentage damage to the plant was carried out 1 day and 6 days from application.
as §3

[8] = test system: Stellaria media; test: as above; format: in vivo
Protocol: as §4, §5, §6, §7, §3

[9] = test system: Taraxacum officinale; test: as above; format: in vivo
Protocol: as §4, §5, §6, §7, §3

[10] = test system: broadleaf weeds and grasses; test: Example 1: overall statement on adjuvants alone; format: in vivo; details: 1 and 6 days after treatment, adjuvant alone
Protocol: as §4, §5, §6, §7, §3

O=C(O)CNCP(=O)(O)O [glyphosate, N-(phosphonomethyl)glycine]
time until visual symptoms of phytotoxicity appear [1]: 7 to 10 days

Iso-tridecyl alcohol polyglycol ether with 8 moles of ethoxylation [GenapolX080]
mean % damage 1 daa Poa annua ([2]; adjuvant 1% w/v): 0%
mean % damage 7 daa Poa annua ([2]; adjuvant 1% w/v): 10%
mean % damage 14 daa Poa annua ([2]; adjuvant 1% w/v): 0%
mean % damage 1 daa Poa annua ([2]; adjuvant 1.5% w/v): 10%
mean % damage 7 daa Poa annua ([2]; adjuvant 1.5% w/v): 30%
mean % damage 14 daa Poa annua ([2]; adjuvant 1.5% w/v): 5%
mean % damage 1 daa Poa annua ([2]; adjuvant 2% w/v): 40%
mean % damage 7 daa Poa annua ([2]; adjuvant 2% w/v): 50%
mean % damage 14 daa Poa annua ([2]; adjuvant 2% w/v): 10%
mean % damage 1 daa Poa annua ([2]; adjuvant 2.5% w/v): 40%
mean % damage 7 daa Poa annua ([2]; adjuvant 2.5% w/v): 50%
mean % damage 14 daa Poa annua ([2]; adjuvant 2.5% w/v): 20%
mean % damage 1 daa Stellaria media ([3]; adjuvant 1% w/v): 10%
mean % damage 7 daa Stellaria media ([3]; adjuvant 1% w/v): 10%
mean % damage 14 daa Stellaria media ([3]; adjuvant 1% w/v): 5%
mean % damage 1 daa Stellaria media ([3]; adjuvant 1.5% w/v): 10%
mean % damage 7 daa Stellaria media ([3]; adjuvant 1.5% w/v): 10%
mean % damage 14 daa Stellaria media ([3]; adjuvant 1.5% w/v): 0%
mean % damage 1 daa Stellaria media ([3]; adjuvant 2% w/v): 20%
mean % damage 7 daa Stellaria media ([3]; adjuvant 2% w/v): 20%
mean % damage 14 daa Stellaria media ([3]; adjuvant 2% w/v): 10%
mean % damage 1 daa Stellaria media ([3]; adjuvant 2.5% w/v): 30%
mean % damage 7 daa Stellaria media ([3]; adjuvant 2.5% w/v): 30%
mean % damage 14 daa Stellaria media ([3]; adjuvant 2.5% w/v): 10%
mean % damage 1 daa Trifolium repens ([4]; adjuvant 1% w/v): 20%
mean % damage 7 daa Trifolium repens ([4]; adjuvant 1% w/v): 20%
mean % damage 14 daa Trifolium repens ([4]; adjuvant 1% w/v): 15%
mean % damage 1 daa Trifolium repens ([4]; adjuvant 1.5% w/v): 50%
mean % damage 7 daa Trifolium repens ([4]; adjuvant 1.5% w/v): 60%
mean % damage 14 daa Trifolium repens ([4]; adjuvant 1.5% w/v): 10%
mean % damage 1 daa Trifolium repens ([4]; adjuvant 2% w/v): 50%
mean % damage 7 daa Trifolium repens ([4]; adjuvant 2% w/v): 60%
mean % damage 14 daa Trifolium repens ([4]; adjuvant 2% w/v): 15%
mean % damage 1 daa Trifolium repens ([4]; adjuvant 2.5% w/v): 50%
mean % damage 7 daa Trifolium repens ([4]; adjuvant 2.5% w/v): 60%
mean % damage 14 daa Trifolium repens ([4]; adjuvant 2.5% w/v): 10%
mean % damage 1 daa Veronica persica ([5]; adjuvant 1% w/v): 5%
mean % damage 7 daa Veronica persica ([5]; adjuvant 1% w/v): 5%
mean % damage 14 daa Veronica persica ([5]; adjuvant 1% w/v): 5%
mean % damage 1 daa Veronica persica ([5]; adjuvant 1.5% w/v): 10%
mean % damage 7 daa Veronica persica ([5]; adjuvant 1.5% w/v): 20%
mean % damage 14 daa Veronica persica ([5]; adjuvant 1.5% w/v): 20%
mean % damage 1 daa Veronica persica ([5]; adjuvant 2% w/v): 20%
mean % damage 7 daa Veronica persica ([5]; adjuvant 2% w/v): 10%
mean % damage 14 daa Veronica persica ([5]; adjuvant 2% w/v): 20%
mean % damage 1 daa Veronica persica ([5]; adjuvant 2.5% w/v): 30%
mean % damage 7 daa Veronica persica ([5]; adjuvant 2.5% w/v): 40%
mean % damage 14 daa Veronica persica ([5]; adjuvant 2.5% w/v): 40%
course of damage over time (recovery) [6]: the level of damage decreases from day 14 onwards

Iso-tridecyl alcohol polyglycol ether with 15 Moles of ethoxylation [GenapolX-150]
avg % damage 1 DAA Poa annua ([7]; adjuvant 1.25% w/v): 0%
avg % damage 6 DAA Poa annua ([7]; adjuvant 1.25% w/v): 10%
avg % damage 1 DAA Poa annua ([7]; adjuvant 2.5% w/v): 0%
avg % damage 6 DAA Poa annua ([7]; adjuvant 2.5% w/v): 5%
avg % damage 1 DAA Poa annua ([7]; adjuvant 5% w/v): 0%
avg % damage 6 DAA Poa annua ([7]; adjuvant 5% w/v): 10%
avg % damage 1 DAA Poa annua ([7]; adjuvant 10% w/v): 0%
avg % damage 6 DAA Poa annua ([7]; adjuvant 10% w/v): 10%
avg % damage 1 DAA Stellaria media ([8]; adjuvant 1.25% w/v): 0%
avg % damage 6 DAA Stellaria media ([8]; adjuvant 1.25% w/v): 10%
avg % damage 1 DAA Stellaria media ([8]; adjuvant 2.5% w/v): 0%
avg % damage 6 DAA Stellaria media ([8]; adjuvant 2.5% w/v): 10%
avg % damage 1 DAA Stellaria media ([8]; adjuvant 5% w/v): 15%
avg % damage 6 DAA Stellaria media ([8]; adjuvant 5% w/v): 15%
avg % damage 1 DAA Stellaria media ([8]; adjuvant 10% w/v): 25%
avg % damage 6 DAA Stellaria media ([8]; adjuvant 10% w/v): 25%
avg % damage 1 DAA Taraxacum officinale ([9]; adjuvant 1.25% w/v): 10%
avg % damage 6 DAA Taraxacum officinale ([9]; adjuvant 1.25% w/v): 5%
avg % damage 1 DAA Taraxacum officinale ([9]; adjuvant 2.5% w/v): 10%
avg % damage 6 DAA Taraxacum officinale ([9]; adjuvant 2.5% w/v): 0%
avg % damage 1 DAA Taraxacum officinale ([9]; adjuvant 5% w/v): 20%
avg % damage 6 DAA Taraxacum officinale ([9]; adjuvant 5% w/v): 10%
avg % damage 1 DAA Taraxacum officinale ([9]; adjuvant 10% w/v): 10%
avg % damage 6 DAA Taraxacum officinale ([9]; adjuvant 10% w/v): 0%
visual symptoms of phytotoxicity [10]: comparatively high level of visual symptoms of phytoxicity
